Assay results published in PMC9693123 (2022).

Columns and labels:
[1] = system: Tel23 (DNA, G4) TAGGGTTAGGGTTAGGGTTAGGG; assay: UV-vis titration, HypSpec2014 fit; details: KCl 0.1 M; NaCacodylate 2.5 mM, pH 7.0, 25 °C
[2] = system: Tel12 (DNA, G4) TAGGGTTAGGGT; assay: UV melting at 295 nm; details: KCl 0.1 M; NaCacodylate 2.5 mM, pH 7.0; ligand 1.75 × 10^-5 M, Tel12 1.87 × 10^-5 M
[3] = system: Tel23 (DNA, G4) TAGGGTTAGGGTTAGGGTTAGGG; assay: UV melting at 295 nm; details: KCl 0.1 M; NaCacodylate 2.5 mM, pH 7.0; ligand 1.40 × 10^-5 M, Tel23 1.38 × 10^-5 M
[4] = system: Tel12 (DNA, G4) TAGGGTTAGGGT; assay: UV-vis titration, HypSpec2014 fit; details: KCl 0.1 M, NaCacodylate 2.5 mM, pH 7.0, 25 °C
[5] = system: Tel12 (DNA, G4) TAGGGTTAGGGT; assay: X-ray crystallography; details: K+ in channel

| LogK [1] | ΔTm [2] [°C] | ΔTm [3] [°C] | LogK [4] | binding ([5]; 0.1 M NaI in crystallizing solution, 0.05 M NaCacodylate pH 6.5, 35% v/v MPD) | LogK ([4]; 1:1 step, further 1:2 ligand:G4 adduct also fitted) | binding ([5]; 0.05 M KCacodylate, 0.1 M Li2SO4, pH 6.5, 20% v/v PEG400) | SMILES |
| --- | --- | --- | --- | --- | --- | --- | --- |
| 4.0 ± 0.3 | 9.7 ± 1.8 | 4.1 ± 0.8 | 6.1 ± 0.2 | yes | – | – | COc1ccc2c(CCc3ccncc3)c3[n+](cc2c1OC)CCc1cc2c(cc1-3)OCO2 |
| 4.4 ± 0.2 | 14.4 ± 1.5 | 4.1 ± 0.4 | – | – | 6.0 ± 0.2 | – | COc1ccc2c(Cc3ccncc3)c3[n+](cc2c1OC)CCc1cc2c(cc1-3)OCO2 |

The remaining lines, values behind:

| SMILES | LogK [1] | ΔTm [2] [°C] | ΔTm [3] [°C] | LogK [4] | binding ([5]; 0.1 M NaI in crystallizing solution, 0.05 M NaCacodylate pH 6.5, 35% v/v MPD) | LogK ([4]; 1:1 step, further 1:2 ligand:G4 adduct also fitted) | binding ([5]; 0.05 M KCacodylate, 0.1 M Li2SO4, pH 6.5, 20% v/v PEG400) |
| --- | --- | --- | --- | --- | --- | --- | --- |
| COc1ccc2c(CCCc3ccncc3)c3[n+](cc2c1OC)CCc1cc2c(cc1-3)OCO2 | 5.8 ± 0.2 | 16.7 ± 1.3 | 2.3 ± 0.6 | 6.6 ± 0.2 | – | – | – |
| COc1ccc2c(CCCCCc3ccncc3)c3[n+](cc2c1OC)CCc1cc2c(cc1-3)OCO2 | 5.6 ± 0.2 | 15.0 ± 1.4 | 5.1 ± 1.1 | 7.2 ± 0.2 | – | – | – |
| COc1ccc2c(CCCCc3ccncc3)c3[n+](cc2c1OC)CCc1cc2c(cc1-3)OCO2 | 5.2 ± 0.2 | 8.7 ± 1.5 | 5.9 ± 1.0 | 7.0 ± 0.2 | – | – | yes |
